For 30 compounds, IC50 results are on record in US12319672B2, “Alpha-D-galactopyranoside derivatives” (Idorsia Pharmaceuticals Ltd, priority 2019, dated 2025).

The target in assay [1] is human Gal-1 (hGal-1). Nature of the assay: Competitive binding assay: binding of biotinylated hGal-1 to microplate-adsorbed asialofetuin (ASF). Particulars: Activities on hGal-1; mean values of several measurements. A digest of the protocol: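 For hGal-1, a variant with all six cysteines replaced by serines is preferred. Either galectin, biotinylated at 300-1000 ng/mL, competes with compound for microplate-bound ASF over 3 h at 4° C; peroxidase/ABTS detection gives IC50, averaged.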

The target in assay [2] is human Gal-3 (hGal-3) (Homo sapiens (Human), UniProt P17931). The assay is described as follows: Competitive binding assay: binding of biotinylated hGal-3 to microplate-adsorbed asialofetuin (ASF). As to conditions: Activity on hGal-3; mean values of several measurements. In short, it runs like this: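 Compounds in DMSO dilution series competed with 300-1000 ng/mL biotinylated hGal-3 for asialofetuin adsorbed on the plate (3 h, 4° C). Streptavidin-peroxidase at 80 ng/mL (1 h, 4° C) with ABTS gave a spectrophotometric read-out, and IC50 was reported as the mean of repeat runs.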

Broadly, the IC50 is the concentration that inhibits the measured activity by half. High values mean lower potency, low ones higher potency.

Sequence of human Gal-3 (hGal-3) (P17931 whole entry): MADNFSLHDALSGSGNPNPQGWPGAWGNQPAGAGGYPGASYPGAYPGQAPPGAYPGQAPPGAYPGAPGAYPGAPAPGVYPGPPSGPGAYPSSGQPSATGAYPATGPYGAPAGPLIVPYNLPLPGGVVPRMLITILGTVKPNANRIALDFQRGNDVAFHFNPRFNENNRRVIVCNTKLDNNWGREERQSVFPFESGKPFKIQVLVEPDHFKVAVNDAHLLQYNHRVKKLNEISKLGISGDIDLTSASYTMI
Sequence of human Gal-1 (hGal-1) (P09382 2-135 limits assumed): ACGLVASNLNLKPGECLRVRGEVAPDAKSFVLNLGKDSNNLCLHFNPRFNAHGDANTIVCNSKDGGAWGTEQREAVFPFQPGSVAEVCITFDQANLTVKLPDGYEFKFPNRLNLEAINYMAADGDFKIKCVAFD

In the case of `CO[C@@H]1[C@@H](n2cc(-c3cc(F)c(F)c(F)c3)nn2)[C@@H](O)[C@@H](CO)O[C@@H]1Cc1cc(C2COC2)on1` [Ex 1.84], the IC50 in assay [1] stood at 3010 nM; in assay [2], 350 nM.
Regarding `OC[C@H]1O[C@H](Cc2cc(C3CCCCC3)on2)[C@H](O)[C@@H](n2cc(-c3cc(F)c(F)c(F)c3)nn2)[C@H]1O` [Ex 1.56], the IC50 in assay [1] was determined as 15200 nM; in assay [2], 340 nM.
On the same counts, the results for `CO[C@@H]1[C@@H](n2cc(-c3cc(F)c(F)c(F)c3)nn2)[C@@H](O)[C@@H](CO)O[C@@H]1C[C@@H]1CC(C2CCCCC2)=NO1` [Ex 1.10] are 5390 nM and 560 nM.
On the same counts, the results for `CO[C@@H]1[C@@H](n2cc(-c3cc(F)c(F)c(F)c3)nn2)[C@@H](O)[C@@H](CO)O[C@@H]1C[C@@H]1CC(C2CCN(C(=O)OC(C)(C)C)CC2)=NO1` [Ex 1.48] are 560 nM and 89 nM.
Consider `COC1CCC(N2C[C@@H](C[C@H]3O[C@H](CO)[C@H](O)[C@H](n4cc(-c5cc(F)c(F)c(F)c5)nn4)[C@H]3OC)OC2=O)CC1` (mixture of isomers) [Example 5.25, (RS)-5-(((2R,3R,4S,5R,6R)-5-hydroxy-6-(hydroxymethyl)-3-methoxy-4-(4-(3,4,5-trifluorophenyl)-1H-1,2,3-triazol-1-yl)tetrahydro-2H-pyran-2-yl)methyl)-3-((1r,4R)-4-methoxycyclohexyl)oxazolidin-2-one], for which the IC50 turned out to be 12700 nM in assay [1] and 740 nM in assay [2].
In the same order, the values of `CO[C@@H]1[C@@H](n2cc(-c3cc(F)c(F)c(F)c3)nn2)[C@@H](O)[C@@H](CO)O[C@@H]1CC1CN(C2CCN(S(=O)(=O)CC(C)C)CC2)C(=O)O1` (mixture of isomers) [Example 5.18, (RS)-5-(((2R,3R,4S,5R,6R)-5-hydroxy-6-(hydroxymethyl)-3-methoxy-4-(4-(3,4,5-trifluorophenyl)-1H-1,2,3-triazol-1-yl)tetrahydro-2H-pyran-2-yl)methyl)-3-(1-(isobutylsulfonyl)piperidin-4-yl)oxazolidin-2-one] are 640 nM and 35 nM.
On the same counts, the results for `CO[C@@H]1[C@@H](n2cc(-c3cc(F)c(F)c(F)c3)nn2)[C@@H](O)[C@@H](CO)O[C@@H]1Cc1cc(C2(O)CCCN(C(C)=O)CC2)on1` (mixture of isomers) [Example 2.10] are 4470 nM and 450 nM.
For `CCOC(=O)N1CCC(C)(c2cc(C[C@H]3O[C@H](CO)[C@H](O)[C@H](n4cc(-c5ccc(C)c(F)c5F)nn4)[C@H]3OC)on2)CC1` [Ex 1.325], the figures for the IC50 in assay [1] and in assay [2] were 600 nM and 17 nM, respectively.
For the compound `CO[C@@H]1[C@@H](n2cc(-c3ccc(Br)c(F)c3F)nn2)[C@@H](O)[C@@H](CO)O[C@@H]1Cc1cc(C(C)(C)C)on1` [Ex 1.191], the IC50 was 3650 nM in assay [1] and 150 nM in assay [2].
Take `CO[C@@H]1[C@@H](n2cc(-c3cc(F)c(F)c(F)c3)nn2)[C@@H](O)[C@@H](CO)O[C@@H]1CC1=NO[C@H](C2CCCCC2)C1` [Ex 1.129]: the IC50 in assay [1] was 14700 nM; in assay [2] it was 270 nM.
Turning to `CO[C@@H]1[C@@H](n2cc(-c3ccc(Cl)c(F)c3F)nn2)[C@@H](O)[C@@H](CO)O[C@@H]1Cc1cc(C2(O)CCCCC2)on1` [Ex 1.243], the figures for the IC50 in assay [1] and in assay [2] were 1330 nM and 42 nM, respectively.
In the same order, the values of `O=c1ccc(C2=NOC(C[C@H]3O[C@H](CO)[C@H](O)[C@H](n4cc(-c5cc(F)c(F)c(F)c5)nn4)[C@H]3O)C2)c[nH]1` (mixture of isomers) [Example 2.02] are 5080 nM and 250 nM.
Turning to `CO[C@@H]1[C@@H](n2cc(-c3ccc(C)c(F)c3F)nn2)[C@@H](O)[C@@H](CO)O[C@@H]1Cc1cc(C2CCCCC2)on1` [Ex 1.177], the IC50 in assay [1] is 64800 nM; in assay [2], 180 nM.
For `CO[C@@H]1[C@@H](n2cc(-c3cc(F)c(F)c(F)c3)nn2)[C@@H](O)[C@@H](CO)O[C@@H]1Cn1cnc(C(C)(C)C)c1` [Example 6.04, (2R,3R,4S,5R,6R)-6-((4-(tert-butyl)-1H-imidazol-1-yl)methyl)-2-(hydroxymethyl)-5-methoxy-4-(4-(3,4,5-trifluorophenyl)-1H-1,2,3-triazol-1-yl)tetrahydro-2H-pyran-3-ol], the IC50 stood at 2380 nM in assay [1] and 180 nM in assay [2].
For `CO[C@@H]1[C@@H](n2cc(-c3ccc(Cl)c(F)c3F)nn2)[C@@H](O)[C@@H](CO)O[C@@H]1Cc1cc(C2(O)CCC2)no1` [Example 2.59, (2R,3R,4S,5R,6R)-4-(4-(4-chloro-2,3-difluorophenyl)-1H-1,2,3-triazol-1-yl)-6-((3-(1-hydroxycyclobutyl)isoxazol-5-yl)methyl)-2-(hydroxymethyl)-5-methoxytetrahydro-2H-pyran-3-ol], the IC50 in assay [1] was determined as 2300 nM; in assay [2], 84 nM.
Turning to `CO[C@@H]1[C@@H](n2cc(-c3cc(F)c(F)c(F)c3)nn2)[C@@H](O)[C@@H](CO)O[C@@H]1C[C@@H]1CC(C2CCN(S(=O)(=O)C(C)C)CC2)=NO1` [Example 3.61, (2R,3R,4S,5R,6R)-2-(hydroxymethyl)-6-(((S)-3-(1-(isopropylsulfonyl)piperidin-4-yl)-4,5-dihydroisoxazol-5-yl)methyl)-5-methoxy-4-(4-(3,4,5-trifluorophenyl)-1H-1,2,3-triazol-1-yl)tetrahydro-2H-pyran-3-ol], the IC50 was found to be 1120 nM in assay [1] and 72 nM in assay [2].
Consider `CO[C@@H]1[C@@H](n2cc(-c3cc(F)c(F)c(F)c3)nn2)[C@@H](O)[C@@H](CO)O[C@@H]1CC1CC(c2cncnc2)=NO1` (stereo partly drawn) [Ex 1.15], for which the IC50 in assay [1] is 3200 nM; in assay [2], 650 nM.
Take `CO[C@@H]1[C@@H](n2cc(-c3ccc(F)c(F)c3F)nn2)[C@@H](O)[C@@H](CO)O[C@@H]1Cc1cc(C(C)(C)O)on1` [Ex 1.232]: the IC50 in assay [1] was determined as 970 nM; in assay [2], 100 nM.
Consider `OC[C@H]1O[C@H](CC2CC(c3cn[nH]c3)=NO2)[C@H](O)[C@@H](n2cc(-c3cc(F)c(F)c(F)c3)nn2)[C@H]1O` (stereo partly drawn) [Ex 1.27], for which the IC50 stood at 6540 nM in assay [1] and 410 nM in assay [2].
On to `CO[C@@H]1[C@@H](n2cc(-c3ccc(F)c(F)c3F)nn2)[C@@H](O)[C@@H](CO)O[C@@H]1Cc1cc(C2(O)CCCCC2)on1` [Ex 1.233], for which the IC50 in assay [1] turned out to be 1330 nM; in assay [2] it was 88 nM.
In the same order, the values of `Cc1ccc(-c2cn([C@H]3[C@@H](O)[C@@H](CO)O[C@H](Cc4cc(C5(C)CC5)no4)[C@@H]3O)nn2)c(F)c1F` [Ex 1.333] are 6990 nM and 10 nM.
With `COc1ccc(-c2cn([C@H]3[C@@H](O)[C@@H](CO)O[C@H](Cc4cc(C(C)(C)C)on4)[C@@H]3OC)nn2)c(F)c1F` [Ex 1.352], the IC50 in assay [1] stood at 1170 nM; in assay [2], 100 nM.
Consider `CCC(=O)O[C@@H]1[C@@H](n2cc(-c3cc(F)c(F)c(F)c3)nn2)[C@@H](O)[C@@H](CO)O[C@@H]1Cc1cc(C2CCNCC2)on1` [Example 2.18, (2R,3R,4S,5R,6R)-5-hydroxy-6-(hydroxymethyl)-2-((5-(piperidin-4-yl)isoxazol-3-yl)methyl)-4-(4-(3,4,5-trifluorophenyl)-1H-1,2,3-triazol-1-yl)tetrahydro-2H-pyran-3-yl propionate], for which the IC50 in assay [1] worked out at 6300 nM; in assay [2] it was 220 nM.
In the case of `CO[C@@H]1[C@@H](n2cc(-c3cc(F)c(F)c(F)c3)nn2)[C@@H](O)[C@@H](CO)O[C@@H]1Cc1cc(C(C)(C)CNC(=O)OC(C)(C)C)no1` [Ex 1.315], the IC50 in assay [1] was determined as 2210 nM; in assay [2], 270 nM.
For `CO[C@@H]1[C@@H](n2cc(-c3ccc(C)c(F)c3F)nn2)[C@@H](O)[C@@H](CO)O[C@@H]1Cc1cc([C@@H]2CC[C@H]2O)on1` [Ex 1.343], the 50% inhibitory concentration (IC50) in assay [1] amounted to 9190 nM; in assay [2] it was 93 nM.
On the same counts, the results for `CCOC(=O)N1CCC(c2cc(C[C@H]3O[C@H](CO)[C@H](O)[C@H](n4cc(-c5cc(F)c(Cl)c(F)c5)nn4)[C@H]3OC)no2)CC1` [Ex 1.199] are 5990 nM and 52 nM.
On the same counts, the results for `CO[C@@H]1[C@@H](n2cc(-c3cc(F)c(F)c(F)c3)nn2)[C@@H](O)[C@@H](CO)O[C@@H]1CC1CN(C2CCN(S(=O)(=O)C(F)(F)F)CC2)C(=O)O1` (mixture of isomers) [Example 5.20, (RS)-5-(((2R,3R,4S,5R,6R)-5-hydroxy-6-(hydroxymethyl)-3-methoxy-4-(4-(3,4,5-trifluorophenyl)-1H-1,2,3-triazol-1-yl)tetrahydro-2H-pyran-2-yl)methyl)-3-(1-((trifluoromethyl)sulfonyl)piperidin-4-yl)oxazolidin-2-one] are 2310 nM and 140 nM.
Regarding `CO[C@@H]1[C@@H](n2cc(-c3cc(F)c(F)c(F)c3)nn2)[C@@H](O)[C@@H](CO)O[C@@H]1Cn1cc(C2(O)CCCC2)nn1` [Example 4.41, (2R,3R,4S,5R,6R)-6-((4-(1-hydroxycyclopentyl)-1H-1,2,3-triazol-1-yl)methyl)-2-(hydroxymethyl)-5-methoxy-4-(4-(3,4,5-trifluorophenyl)-1H-1,2,3-triazol-1-yl)tetrahydro-2H-pyran-3-ol], the IC50 turned out to be 2490 nM in assay [1] and 340 nM in assay [2].
As to `CO[C@@H]1[C@@H](n2cc(-c3cc(F)c(F)c(F)c3)nn2)[C@@H](O)[C@@H](CO)O[C@@H]1Cc1cc(C(C)(C)N)no1` [Ex 1.217], the IC50 is 2030 nM in assay [1] and 180 nM in assay [2].
In the same order, the values of `COc1ccc(-c2cn([C@H]3[C@@H](O)[C@@H](CO)O[C@H](CC4CC(C5CCN(C(=O)OC(C)(C)C)CC5)=NO4)[C@@H]3OC)nn2)c(F)c1F` (stereo partly drawn) [Ex 1.328] are 960 nM and 77 nM.
